Measurements from PubChem BioAssay AID330 (DTP/NCI, 2004).
“And” between values parts separate entries of the source, which are not always exact repeats. Equal entries are not always repeated. Inconclusive results and toxic doses are left out.

System: P388 leukemia ip, CD2F1 mice, survival T/C
Test: NCI In Vivo Anticancer Drug Screen. Data for tumor model P388 Leukemia (intraperitoneal) in CD2F1 (CDF1) mice
Settings: endpoint: median survival time, higher = longer survival
In short: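 Mice carrying the transplanted tumor received test compound or vehicle. Survival was recorded in each group, and the value is the treated-group measurement divided by that of the vehicle-treated control group.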

[1] = dose: 50.0 mg/kg/injection, schedule: Q01DX009 (ip), vehicle: saline
[2] = dose: 100.0 mg/kg/injection, schedule: Q01DX009 (ip), vehicle: saline
[3] = dose: 60.0 mg/kg/injection, schedule: Q01DX005 (ip), vehicle: saline with Tween-80
[4] = dose: 120.0 mg/kg/injection, schedule: Q01DX005 (ip), vehicle: saline with Tween-80
[5] = dose: 50.0 mg/kg/injection, schedule: Q01DX005 (ip), vehicle: saline with Tween-80
[6] = dose: 100.0 mg/kg/injection, schedule: Q01DX005 (ip), vehicle: saline with Tween-80
[7] = dose: 200.0 mg/kg/injection, schedule: Q01DX005 (ip), vehicle: saline with Tween-80
[8] = dose: 25.0 mg/kg/injection, schedule: Q01DX001 (ip), vehicle: Klucel (hydroxypropylcellulose) (HPC)
[9] = dose: 100.0 mg/kg/injection, schedule: Q01DX009 (ip), vehicle: saline with Tween-80
[10] = dose: 200.0 mg/kg/injection, schedule: Q01DX009 (ip), vehicle: saline with Tween-80
[11] = dose: 60.0 mg/kg/injection, schedule: Q01DX005 (ip), vehicle: Klucel (hydroxypropylcellulose) (HPC)
[12] = dose: 120.0 mg/kg/injection, schedule: Q01DX005 (ip), vehicle: Klucel (hydroxypropylcellulose) (HPC)

CCN(CC)c1ccc2nc3c4ccccc4c(=NC(=O)c4ccccc4-c4c5ccc(N(CC)CC)cc5[o+]c5cc(N(CC)CC)ccc45)cc-3oc2c1
T/C [1]: 106 % of control
T/C [2]: 96 % of control

COC(=O)CS(=O)(=O)CCCCCS(=O)(=O)CC(=O)OC
T/C [1]: 97 % of control
T/C [2]: 106 % of control
T/C (dose: 200.0 mg/kg/injection, schedule: Q01DX009 (ip), vehicle: saline): 99 % of control

Cc1cc(Nc2ccc3c(c2)OCO3)c2cc(C3CCCCC3)ccc2n1
T/C [3]: 95 % of control
T/C [4]: 91 % of control

CCCCC(CCCCCC(CCCC)C1NCCc2cc(OC)c(OC)cc21)C1NCCc2cc(OC)c(OC)cc21 (stereo unspecified)
T/C (dose: 6.25 mg/kg/injection, schedule: Q01DX005 (ip), vehicle: saline with Tween-80): 91 % of control
T/C (dose: 12.5 mg/kg/injection, schedule: Q01DX005 (ip), vehicle: saline with Tween-80): 93 % of control
T/C (dose: 25.0 mg/kg/injection, schedule: Q01DX005 (ip), vehicle: saline with Tween-80): 93 % of control

CC1(C)OC(C(F)(F)F)(C(F)(F)F)c2cc(C(C)(C)C)cc(C(O)(C(F)(F)F)C(F)(F)F)c2S1
T/C (dose: 30.0 mg/kg/injection, schedule: Q01DX005 (ip), vehicle: saline with Tween-80): 120 % of control
T/C [5]: 106 % of control
T/C [3]: 113 % of control
T/C [6]: 120 % of control
T/C [4]: 112 % of control
T/C [7]: 115 % of control

O=C1C=CC(=O)c2c(O)cccc21
T/C (dose: 0.39 mg/kg/injection, schedule: Q01DX009 (ip), vehicle: saline with Tween-80): 93 % of control
T/C (dose: 0.75 mg/kg/injection, schedule: Q01DX009 (ip), vehicle: saline with Tween-80): 95 % of control
T/C (dose: 0.78 mg/kg/injection, schedule: Q01DX009 (ip), vehicle: saline with Tween-80): 93 % of control
T/C (dose: 1.5 mg/kg/injection, schedule: Q01DX009 (ip), vehicle: saline with Tween-80): 90 % of control
T/C (dose: 1.56 mg/kg/injection, schedule: Q01DX009 (ip), vehicle: saline with Tween-80): 102 % of control
T/C (dose: 3.13 mg/kg/injection, schedule: Q01DX009 (ip), vehicle: saline with Tween-80): 90 % of control

CC(=O)Nc1c(Cl)c(Cl)c2c(c1Cl)Cc1cc(Cl)ccc1-2
T/C (dose: 12.5 mg/kg/injection, schedule: Q01DX009 (ip), vehicle: saline): 103 % of control
T/C (dose: 25.0 mg/kg/injection, schedule: Q01DX009 (ip), vehicle: saline): 104 % of control
T/C (dose: 25.0 mg/kg/injection, schedule: Q01DX009 (ip), vehicle: suspension in saline): 91 % of control
T/C [1]: 107 % of control
T/C (dose: 50.0 mg/kg/injection, schedule: Q01DX009 (ip), vehicle: suspension in saline): 87 % of control
T/C (dose: 100.0 mg/kg/injection, schedule: Q01DX009 (ip), vehicle: suspension in saline): 91 % of control

O=[N+]([O-])c1ccc(Nc2ccc(Cl)cc2)c2nonc12
T/C [5]: 100 % of control
T/C [6]: 103 % of control
T/C [7]: 97 % of control

c1nc(NCCCN2CCOCC2)c2c3c(sc2n1)CCCC3
T/C [5]: 109 % of control
T/C [6]: 101 % of control
T/C [7]: 100 % of control

CCCC1OCC2OC(Nc3ccccc3)C(O)C(O)C2O1 (stereo unspecified)
T/C [5]: 103 % of control
T/C [6]: 98 % of control
T/C [7]: 103 % of control

O=NN(CCCl)C(=O)Oc1cc(Cl)c(Cl)cc1Cl
T/C [8]: 116 % of control
T/C (dose: 50.0 mg/kg/injection, schedule: Q01DX005 (ip), vehicle: Klucel (hydroxypropylcellulose) (HPC)): 86 % of control
T/C (dose: 75.0 mg/kg/injection, schedule: Q01DX001 (ip), vehicle: Klucel (hydroxypropylcellulose) (HPC)): 154 % of control and 250 % of control
T/C (dose: 100.0 mg/kg/injection, schedule: Q01DX001 (ip), vehicle: Klucel (hydroxypropylcellulose) (HPC)): 258 % of control

CC(C)OC1CC(C)(C)c2c(-c3ccccc3)nn(-c3ccccc3)c2O1 (stereo unspecified)
T/C (dose: 50.0 mg/kg/injection, schedule: Q01DX009 (ip), vehicle: saline with Tween-80): 109 % of control
T/C [9]: 98 % of control
T/C [10]: 107 % of control

CC(C)(C)N(Cc1ccccc1)C(O)Cc1c(-c2ccccc2)c(-c2ccccc2)c2n1CCC2 (stereo unspecified)
T/C [11]: 89 % of control
T/C [12]: 88 % of control

COCCCN1CC(=O)N2Cc3ccccc3CN2C(=O)C1
T/C [5]: 98 % of control
T/C [6]: 98 % of control
T/C [7]: 103 % of control

CNC(=O)OCc1c(COC(=O)NC)c(-c2ccsc2)n2c1CCC2
T/C (dose: 15.0 mg/kg/injection, schedule: Q01DX005 (ip), vehicle: saline with Tween-80): 118 % of control
T/C [3]: 119 % of control and 124 % of control

CC(CN(C)C)CN1c2ccccc2Sc2ccccc21 (stereo unspecified)
T/C (dose: 12.5 mg/kg/injection, schedule: Q04DX003 (ip), vehicle: saline with Tween-80): 112 % of control
T/C (dose: 25.0 mg/kg/injection, schedule: Q04DX003 (ip), vehicle: saline with Tween-80): 115 % of control
T/C (dose: 33.0 mg/kg/injection, schedule: Q04DX003 (ip), vehicle: saline with Tween-80): 123 % of control
T/C (dose: 50.0 mg/kg/injection, schedule: Q04DX003 (ip), vehicle: saline with Tween-80): 117 % of control

CC1CCC2(OC1)OC1CC3C4CCC5CC(O)CCC5(C)C4CCC3(C)C1C2C (stereo unspecified)
T/C (dose: 10.0 mg/kg/injection, schedule: Q01DX009 (ip), vehicle: Klucel (hydroxypropylcellulose) (HPC)): 108 % of control
T/C (dose: 20.0 mg/kg/injection, schedule: Q01DX009 (ip), vehicle: Klucel (hydroxypropylcellulose) (HPC)): 117 % of control
T/C (dose: 40.0 mg/kg/injection, schedule: Q01DX009 (ip), vehicle: Klucel (hydroxypropylcellulose) (HPC)): 119 % of control

CCCCN(CCCC)CC(O)c1cc2ccc(C(F)(F)F)cc2c2cc(C(F)(F)F)ccc12 (stereo unspecified)
T/C (dose: 6.25 mg/kg/injection, schedule: Q01DX009 (ip), vehicle: saline with Tween-80): 93 % of control
T/C (dose: 12.5 mg/kg/injection, schedule: Q01DX009 (ip), vehicle: saline with Tween-80): 94 % of control
T/C (dose: 25.0 mg/kg/injection, schedule: Q01DX009 (ip), vehicle: saline with Tween-80): 88 % of control
T/C [9]: 100 % of control
T/C [10]: 99 % of control

Cc1ccc(C(=O)Nc2ccc(N(CCCl)CCCl)cc2)cc1
T/C (dose: 6.25 mg/kg/injection, schedule: Q01DX001 (ip), vehicle: Klucel (hydroxypropylcellulose) (HPC)): 102 % of control
T/C (dose: 12.5 mg/kg/injection, schedule: Q01DX001 (ip), vehicle: Klucel (hydroxypropylcellulose) (HPC)): 108 % of control
T/C [8]: 110 % of control

CC(C)(O)/C=C/C(=O)[C@](C)(O)[C@H]1[C@H](O)C[C@@]2(C)[C@@H]3CC=C4[C@@H](C=C(O)C(=O)C4(C)C)[C@]3(C)C(=O)C[C@]12C
T/C (dose: 0.25 mg/kg/injection, schedule: Q01DX005 (ip), vehicle: water): 112 % of control
T/C (dose: 0.25 mg/kg/injection, schedule: Q01DX010 (ip), vehicle: saline): 100 % of control
T/C (dose: 0.5 mg/kg/injection, schedule: Q01DX005 (ip), vehicle: water): 100 % of control
T/C (dose: 0.5 mg/kg/injection, schedule: Q01DX010 (ip), vehicle: saline): 104 % of control
T/C (dose: 1.0 mg/kg/injection, schedule: Q01DX005 (ip), vehicle: water): 105 % of control
T/C (dose: 1.0 mg/kg/injection, schedule: Q01DX010 (ip), vehicle: saline): 109 % of control
T/C (dose: 2.0 mg/kg/injection, schedule: Q01DX005 (ip), vehicle: water): 105 % of control

C[n+]1c(C2(O)CCCCCCCCCCC2)sc2ccccc21
T/C [11]: 95 % of control
T/C [12]: 100 % of control
T/C (dose: 240.0 mg/kg/injection, schedule: Q01DX005 (ip), vehicle: Klucel (hydroxypropylcellulose) (HPC)): 115 % of control

CC1=NC(c2ccccn2)=NNC(c2ccccn2)=C1c1ccccc1
T/C (dose: 25.0 mg/kg/injection, schedule: Q01DX009 (ip), vehicle: other): 113 % of control
T/C (dose: 50.0 mg/kg/injection, schedule: Q01DX009 (ip), vehicle: other): 116 % of control
T/C (dose: 100.0 mg/kg/injection, schedule: Q01DX009 (ip), vehicle: other): 116 % of control
T/C (dose: 200.0 mg/kg/injection, schedule: Q01DX009 (ip), vehicle: other): 114 % of control
T/C (dose: 400.0 mg/kg/injection, schedule: Q01DX009 (ip), vehicle: other): 120 % of control

O=C1C(c2ccccc2)C2NC(C1c1ccccc1)C([N+](=O)[O-])C=C2[N+](=O)[O-] (stereo unspecified)
T/C [8]: 94 % of control
T/C (dose: 50.0 mg/kg/injection, schedule: Q01DX001 (ip), vehicle: Klucel (hydroxypropylcellulose) (HPC)): 90 % of control

Cn1/c(=N\N)sc2ccc(S(=O)(=O)O)cc21
T/C (dose: 50.0 mg/kg/injection, schedule: Q01DX009 (ip), vehicle: Klucel (hydroxypropylcellulose) (HPC)): 97 % of control
T/C (dose: 100.0 mg/kg/injection, schedule: Q01DX009 (ip), vehicle: Klucel (hydroxypropylcellulose) (HPC)): 103 % of control
T/C (dose: 200.0 mg/kg/injection, schedule: Q01DX009 (ip), vehicle: Klucel (hydroxypropylcellulose) (HPC)): 105 % of control
